Test results: ChEMBL document CHEMBL4507258 (2021)

Legend:
[1] = target: Mast/stem cell growth factor receptor Kit (Homo sapiens) (UniProt P10721); details: Compound concentration 1000.0 nM
[2] = target: Serine/threonine-protein kinase TAO2 (Homo sapiens) (UniProt Q9UL54); details: Compound concentration 1000.0 nM
[3] = target: Serine/threonine-protein kinase PLK2 (Homo sapiens) (UniProt Q9NYY3); details: Compound concentration 1000.0 nM
[4] = target: Calcium/calmodulin-dependent protein kinase kinase 2 (Homo sapiens) (UniProt Q96RR4); details: Compound concentration 1000.0 nM
[5] = system: Receptor-type tyrosine-protein kinase FLT3 (Homo sapiens), P36888 [UNDEFINED MUTATION]; details: Compound concentration 1000.0 nM
[6] = target: Atypical kinase COQ8A, mitochondrial (Homo sapiens) (UniProt Q8NI60); details: Compound concentration 1000.0 nM
[7] = target: Serine/threonine-protein kinase mTOR (Homo sapiens) (UniProt P42345); details: Compound concentration 1000.0 nM
[8] = target: Serine/threonine-protein kinase Chk2 (Homo sapiens) (UniProt O96017); details: Compound concentration 1000.0 nM
[9] = target: Homeodomain-interacting protein kinase 2 (Homo sapiens) (UniProt Q9H2X6); details: Compound concentration 1000.0 nM
[10] = target: Sigma non-opioid intracellular receptor 1 (Homo sapiens, UniProt Q99720); details: Compound concentration 10.0 uM
[11] = target: TRAF2 and NCK-interacting protein kinase (Homo sapiens) (UniProt Q9UKE5); details: Compound concentration 1000.0 nM
[12] = target: Myosin-IIIa (Homo sapiens) (UniProt Q8NEV4); details: Compound concentration 1000.0 nM
[13] = target: D(1B) dopamine receptor (Homo sapiens) (UniProt P21918); details: Compound concentration 10.0 uM
[14] = target: 5'-AMP-activated protein kinase catalytic subunit alpha-1 (Homo sapiens) (UniProt Q13131); details: Compound concentration 1000.0 nM
[15] = target: Mitogen-activated protein kinase 13 (Homo sapiens) (UniProt O15264); details: Compound concentration 1000.0 nM
[16] = target: NUAK family SNF1-like kinase 2 (Homo sapiens) (UniProt Q9H093); details: Compound concentration 1000.0 nM
[17] = target: Tyrosine-protein kinase HCK (Homo sapiens) (UniProt P08631); details: Compound concentration 1000.0 nM
[18] = target: Histamine H4 receptor (Homo sapiens) (UniProt Q9H3N8); details: Compound concentration 10.0 uM
[19] = system: Tyrosine-protein kinase ABL1 (Homo sapiens), P00519 [F317L]; details: Compound concentration 1000.0 nM
[20] = target: Serine/threonine-protein kinase MARK1 (Homo sapiens) (UniProt Q9P0L2); details: Compound concentration 1000.0 nM
[21] = target: Ephrin type-B receptor 3 (Homo sapiens) (UniProt P54753); details: Compound concentration 1000.0 nM
[22] = target: Mitogen-activated protein kinase 15 (Homo sapiens) (UniProt Q8TD08); details: Compound concentration 1000.0 nM
[23] = target: Serine/threonine-protein kinase MRCK gamma (Homo sapiens) (UniProt Q6DT37); details: Compound concentration 1000.0 nM
[24] = target: Phosphatidylinositol 4-kinase beta (Homo sapiens) (UniProt Q9UBF8); details: Compound concentration 1000.0 nM
[25] = target: Serine/threonine-protein kinase Nek3 (Homo sapiens) (UniProt P51956); details: Compound concentration 1000.0 nM
[26] = target: Tyrosine-protein kinase ABL2 (Homo sapiens) (UniProt P42684); details: Compound concentration 1000.0 nM
[27] = target: Serine/threonine-protein kinase TAO1 (Homo sapiens) (UniProt Q7L7X3); details: Compound concentration 1000.0 nM
[28] = target: Homeodomain-interacting protein kinase 3 (Homo sapiens) (UniProt Q9H422); details: Compound concentration 1000.0 nM
[29] = target: Cyclin-dependent kinase 4 (Homo sapiens) (UniProt P11802); details: Compound concentration 1000.0 nM
[30] = target: Ribosomal protein S6 kinase alpha-2 (Homo sapiens) (UniProt Q15349); details: Compound concentration 1000.0 nM
[31] = system: Phosphatidylinositol 4,5-bisphosphate 3-kinase catalytic subunit alpha isoform (Homo sapiens), P42336 [M1043I]; details: Compound concentration 1000.0 nM
[32] = target: Ephrin type-A receptor 1 (Homo sapiens) (UniProt P21709); details: Compound concentration 1000.0 nM
[33] = target: Insulin receptor (Homo sapiens) (UniProt P06213); details: Compound concentration 1000.0 nM
[34] = target: Calcium-dependent protein kinase 1 (Plasmodium falciparum) (UniProt P62344); details: Compound concentration 1000.0 nM
[35] = system: Epidermal growth factor receptor (Homo sapiens), P00533 [L861Q]; details: Compound concentration 1000.0 nM
[36] = target: Serine/threonine-protein kinase PAK 4 (Homo sapiens) (UniProt O96013); details: Compound concentration 1000.0 nM
[37] = target: 5-hydroxytryptamine receptor 5A (Homo sapiens) (UniProt P47898); details: Compound concentration 10.0 uM
[38] = target: Ephrin type-A receptor 8 (Homo sapiens) (UniProt P29322); details: Compound concentration 1000.0 nM
[39] = system: Phosphatidylinositol 4,5-bisphosphate 3-kinase catalytic subunit alpha isoform (Homo sapiens), P42336 [C420R]; details: Compound concentration 1000.0 nM
[40] = target: MAP kinase-interacting serine/threonine-protein kinase 2 (Homo sapiens) (UniProt Q9HBH9); details: Compound concentration 1000.0 nM
[41] = target: Angiopoietin-1 receptor (Homo sapiens) (UniProt Q02763); details: Compound concentration 1000.0 nM
[42] = system: Mast/stem cell growth factor receptor Kit (Homo sapiens), P10721 [D816V]; details: Compound concentration 1000.0 nM
[43] = target: Serine/threonine-protein kinase 38 (Homo sapiens) (UniProt Q15208); details: Compound concentration 1000.0 nM
[44] = target: Serine/threonine-protein kinase 4 (Homo sapiens) (UniProt Q13043); details: Compound concentration 1000.0 nM
[45] = target: Dual specificity testis-specific protein kinase 1 (Homo sapiens) (UniProt Q15569); details: Compound concentration 1000.0 nM

Sequence of Serine/threonine-protein kinase Nek3 (Homo sapiens) (P51956 whole entry): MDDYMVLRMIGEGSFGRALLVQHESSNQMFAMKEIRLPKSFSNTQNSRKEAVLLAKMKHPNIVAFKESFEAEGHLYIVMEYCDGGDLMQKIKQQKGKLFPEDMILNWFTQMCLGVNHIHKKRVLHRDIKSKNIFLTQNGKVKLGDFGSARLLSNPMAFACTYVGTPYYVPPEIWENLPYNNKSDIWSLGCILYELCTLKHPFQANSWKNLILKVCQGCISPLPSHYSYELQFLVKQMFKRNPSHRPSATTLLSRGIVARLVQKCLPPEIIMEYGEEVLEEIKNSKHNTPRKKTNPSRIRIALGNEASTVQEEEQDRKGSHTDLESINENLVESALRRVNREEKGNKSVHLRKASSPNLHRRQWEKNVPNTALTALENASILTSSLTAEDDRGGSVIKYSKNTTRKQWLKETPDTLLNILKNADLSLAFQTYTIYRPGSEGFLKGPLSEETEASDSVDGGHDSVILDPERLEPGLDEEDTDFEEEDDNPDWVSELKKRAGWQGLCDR
Sequence of Ribosomal protein S6 kinase alpha-2 (Homo sapiens) (Q15349 whole entry, canonical isoform): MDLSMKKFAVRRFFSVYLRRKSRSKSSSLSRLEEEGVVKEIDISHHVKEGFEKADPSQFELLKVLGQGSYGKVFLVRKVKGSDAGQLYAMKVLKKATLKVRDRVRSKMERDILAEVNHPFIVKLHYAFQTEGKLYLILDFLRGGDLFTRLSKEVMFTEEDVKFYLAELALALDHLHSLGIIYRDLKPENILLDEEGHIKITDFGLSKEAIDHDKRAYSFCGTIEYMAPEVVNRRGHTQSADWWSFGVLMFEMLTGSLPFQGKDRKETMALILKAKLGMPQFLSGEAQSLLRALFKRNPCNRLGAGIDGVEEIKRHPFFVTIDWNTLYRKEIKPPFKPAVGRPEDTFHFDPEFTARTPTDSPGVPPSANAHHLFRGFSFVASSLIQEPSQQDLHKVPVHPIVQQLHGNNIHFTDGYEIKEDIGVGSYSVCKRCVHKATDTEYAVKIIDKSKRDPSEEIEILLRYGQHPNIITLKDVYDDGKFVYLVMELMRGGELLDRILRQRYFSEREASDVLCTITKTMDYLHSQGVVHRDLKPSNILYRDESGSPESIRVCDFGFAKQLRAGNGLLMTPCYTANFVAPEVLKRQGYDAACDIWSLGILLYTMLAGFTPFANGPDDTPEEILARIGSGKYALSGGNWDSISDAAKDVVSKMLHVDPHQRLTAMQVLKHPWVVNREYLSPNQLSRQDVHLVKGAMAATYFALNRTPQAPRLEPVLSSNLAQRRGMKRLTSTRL
Sequence of Insulin receptor (Homo sapiens) (P06213 28-758 limits assumed): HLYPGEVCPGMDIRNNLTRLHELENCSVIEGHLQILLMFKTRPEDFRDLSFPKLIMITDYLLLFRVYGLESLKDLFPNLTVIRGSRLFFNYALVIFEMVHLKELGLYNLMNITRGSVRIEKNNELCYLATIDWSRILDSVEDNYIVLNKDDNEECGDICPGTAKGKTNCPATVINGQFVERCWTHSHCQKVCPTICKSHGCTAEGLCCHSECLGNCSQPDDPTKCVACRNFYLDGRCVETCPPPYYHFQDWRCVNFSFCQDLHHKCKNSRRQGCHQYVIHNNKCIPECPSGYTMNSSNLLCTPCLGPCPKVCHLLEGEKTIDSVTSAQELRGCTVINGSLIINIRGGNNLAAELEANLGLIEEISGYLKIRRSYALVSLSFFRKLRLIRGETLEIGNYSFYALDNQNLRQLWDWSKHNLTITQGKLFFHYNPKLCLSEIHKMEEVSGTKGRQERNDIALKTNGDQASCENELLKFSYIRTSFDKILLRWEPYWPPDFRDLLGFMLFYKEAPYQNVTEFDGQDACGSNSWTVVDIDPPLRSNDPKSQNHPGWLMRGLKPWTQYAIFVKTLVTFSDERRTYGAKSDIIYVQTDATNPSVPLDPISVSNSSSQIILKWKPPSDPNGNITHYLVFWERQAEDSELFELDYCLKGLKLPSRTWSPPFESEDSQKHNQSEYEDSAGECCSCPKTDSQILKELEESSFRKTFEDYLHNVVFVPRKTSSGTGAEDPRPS
Sequence of Insulin receptor (Homo sapiens) (P06213 763-1382 limits assumed): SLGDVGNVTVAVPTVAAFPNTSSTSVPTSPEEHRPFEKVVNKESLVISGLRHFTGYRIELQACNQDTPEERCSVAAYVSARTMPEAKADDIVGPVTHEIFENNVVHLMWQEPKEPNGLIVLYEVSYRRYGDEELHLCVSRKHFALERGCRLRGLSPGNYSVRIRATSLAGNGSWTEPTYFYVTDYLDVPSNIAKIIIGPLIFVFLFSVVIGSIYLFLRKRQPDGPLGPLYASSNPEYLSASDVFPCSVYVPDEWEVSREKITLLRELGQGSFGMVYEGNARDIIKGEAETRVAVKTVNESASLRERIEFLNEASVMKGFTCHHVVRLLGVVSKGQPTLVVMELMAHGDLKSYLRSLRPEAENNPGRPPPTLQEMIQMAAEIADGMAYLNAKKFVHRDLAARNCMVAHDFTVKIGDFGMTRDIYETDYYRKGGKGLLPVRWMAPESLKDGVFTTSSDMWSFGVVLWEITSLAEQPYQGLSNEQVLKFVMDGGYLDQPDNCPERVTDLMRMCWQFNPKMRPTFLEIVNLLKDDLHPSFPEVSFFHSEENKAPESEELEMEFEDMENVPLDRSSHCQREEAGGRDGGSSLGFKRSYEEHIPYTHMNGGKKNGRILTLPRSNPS
Sequence of Mitogen-activated protein kinase 13 (Homo sapiens) (O15264 whole entry): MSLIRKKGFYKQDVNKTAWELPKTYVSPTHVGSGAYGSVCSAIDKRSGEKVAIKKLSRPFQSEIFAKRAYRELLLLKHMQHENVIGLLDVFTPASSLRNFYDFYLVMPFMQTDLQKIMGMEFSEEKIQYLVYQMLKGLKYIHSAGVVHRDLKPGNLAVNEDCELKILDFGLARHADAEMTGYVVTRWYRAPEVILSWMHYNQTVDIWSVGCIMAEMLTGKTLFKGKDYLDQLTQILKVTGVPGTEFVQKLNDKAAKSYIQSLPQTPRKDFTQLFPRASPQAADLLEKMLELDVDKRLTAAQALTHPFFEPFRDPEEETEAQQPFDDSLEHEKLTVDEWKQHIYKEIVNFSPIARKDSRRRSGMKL
Sequence of Homeodomain-interacting protein kinase 3 (Homo sapiens) (Q9H422 whole entry, looked up): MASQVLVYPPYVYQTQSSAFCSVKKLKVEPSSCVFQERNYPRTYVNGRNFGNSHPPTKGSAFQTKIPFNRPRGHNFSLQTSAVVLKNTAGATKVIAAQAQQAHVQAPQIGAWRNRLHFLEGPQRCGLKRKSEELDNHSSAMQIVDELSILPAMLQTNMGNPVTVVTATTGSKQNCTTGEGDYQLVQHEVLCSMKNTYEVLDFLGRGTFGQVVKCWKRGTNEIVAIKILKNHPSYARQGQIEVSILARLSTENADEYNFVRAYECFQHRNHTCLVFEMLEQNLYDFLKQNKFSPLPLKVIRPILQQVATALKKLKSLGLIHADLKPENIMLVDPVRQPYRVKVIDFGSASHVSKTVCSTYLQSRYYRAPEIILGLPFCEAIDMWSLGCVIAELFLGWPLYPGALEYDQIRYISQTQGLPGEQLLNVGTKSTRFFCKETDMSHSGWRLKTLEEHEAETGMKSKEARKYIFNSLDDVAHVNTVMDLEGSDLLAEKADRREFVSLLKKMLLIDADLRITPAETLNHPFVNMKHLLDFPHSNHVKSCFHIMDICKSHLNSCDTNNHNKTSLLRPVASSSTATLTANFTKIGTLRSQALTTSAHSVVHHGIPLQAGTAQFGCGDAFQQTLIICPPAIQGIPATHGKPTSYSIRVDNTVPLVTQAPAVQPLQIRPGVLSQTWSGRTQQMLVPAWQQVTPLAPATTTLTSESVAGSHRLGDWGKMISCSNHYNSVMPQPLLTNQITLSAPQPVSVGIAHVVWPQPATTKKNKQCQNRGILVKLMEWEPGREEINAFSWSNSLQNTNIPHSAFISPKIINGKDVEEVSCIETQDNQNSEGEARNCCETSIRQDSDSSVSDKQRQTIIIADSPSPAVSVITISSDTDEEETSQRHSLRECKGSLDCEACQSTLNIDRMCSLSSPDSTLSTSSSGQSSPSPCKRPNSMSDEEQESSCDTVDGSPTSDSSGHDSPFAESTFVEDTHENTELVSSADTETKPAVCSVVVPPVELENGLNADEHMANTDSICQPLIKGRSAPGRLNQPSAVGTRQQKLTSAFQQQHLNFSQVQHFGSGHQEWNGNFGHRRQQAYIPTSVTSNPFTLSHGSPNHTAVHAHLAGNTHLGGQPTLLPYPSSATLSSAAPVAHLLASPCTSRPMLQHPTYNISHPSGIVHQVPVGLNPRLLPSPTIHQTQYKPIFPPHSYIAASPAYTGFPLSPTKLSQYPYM
Sequence of Serine/threonine-protein kinase PAK 4 (Homo sapiens) (O96013 whole entry, looked up): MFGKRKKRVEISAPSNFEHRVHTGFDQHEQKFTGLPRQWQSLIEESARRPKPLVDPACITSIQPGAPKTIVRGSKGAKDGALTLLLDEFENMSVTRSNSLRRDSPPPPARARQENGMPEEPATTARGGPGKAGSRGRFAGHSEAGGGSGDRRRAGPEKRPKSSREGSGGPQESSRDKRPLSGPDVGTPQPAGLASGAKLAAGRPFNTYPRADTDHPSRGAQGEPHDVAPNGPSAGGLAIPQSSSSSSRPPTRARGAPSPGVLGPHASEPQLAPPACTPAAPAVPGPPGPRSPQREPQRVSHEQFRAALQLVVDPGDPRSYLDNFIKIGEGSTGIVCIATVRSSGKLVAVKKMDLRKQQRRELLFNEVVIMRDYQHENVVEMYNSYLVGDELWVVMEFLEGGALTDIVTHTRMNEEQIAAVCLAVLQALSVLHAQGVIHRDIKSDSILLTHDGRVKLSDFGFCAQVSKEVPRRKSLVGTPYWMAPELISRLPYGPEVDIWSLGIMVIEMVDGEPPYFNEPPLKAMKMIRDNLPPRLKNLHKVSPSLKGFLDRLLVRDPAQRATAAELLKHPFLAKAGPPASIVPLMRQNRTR
Sequence of Sigma non-opioid intracellular receptor 1 (Q99720 whole entry): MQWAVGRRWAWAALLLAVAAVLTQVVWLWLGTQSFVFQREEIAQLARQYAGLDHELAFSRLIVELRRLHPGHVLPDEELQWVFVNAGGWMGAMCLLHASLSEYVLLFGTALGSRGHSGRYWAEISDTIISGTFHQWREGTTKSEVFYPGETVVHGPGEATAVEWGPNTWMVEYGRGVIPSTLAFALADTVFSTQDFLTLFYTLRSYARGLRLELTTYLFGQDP

CCCCN(CCCC)C(=O)CN1C[C@@H](c2cc(OC)c3c(c2)OCO3)[C@H](C(=O)O)[C@H]1CC(C)(C)CCC [A-545]
residual activity [1]: 100%
residual activity [2]: 95.4%
residual activity [3]: 98.4%
residual activity [4]: 87.2%
residual activity [5]: 99.1%
residual activity [6]: 99.4%
residual activity [7]: 100%
residual activity [8]: 87.8%
residual activity [9]: 97.1%
inhibition [10]: 93.6%
residual activity [11]: 86%
residual activity [12]: 100%
inhibition [13]: 30.5%
residual activity [14]: 96.7%
residual activity [15]: 100%
residual activity [16]: 100%
residual activity [17]: 82.8%
inhibition [18]: 4.1%
residual activity [19]: 100%
residual activity [20]: 88.7%
residual activity [21]: 100%
residual activity [22]: 100%
residual activity [23]: 94.4%
residual activity [24]: 97.6%
residual activity [25]: 72.9%
residual activity [26]: 100%
residual activity [27]: 97.4%
residual activity [28]: 100%
residual activity [29]: 92.7%
residual activity [30]: 84.7%
residual activity [31]: 100%
residual activity [32]: 85.5%
residual activity [33]: 89%
residual activity [34]: 86.9%
residual activity [35]: 100%
residual activity [36]: 90.2%
inhibition [37]: 43.5%
residual activity [38]: 99.9%
residual activity [39]: 99.4%
residual activity [40]: 96.5%
residual activity [41]: 100%
residual activity [42]: 95.8%
residual activity [43]: 95.2%
residual activity [44]: 94.4%
residual activity [45]: 94.3%

CCCCN(CCCC)C(=O)CN1C[C@H](c2cc(OC)c3c(c2)OCO3)[C@@H](C(=O)O)[C@@H]1CC(C)(C)CCC [ABT-546]
residual activity [1]: 100%
residual activity [2]: 71.1%
residual activity [3]: 67.1%
residual activity [4]: 100%
residual activity [5]: 90.6%
residual activity [6]: 100%
residual activity [7]: 100%
residual activity [8]: 100%
residual activity [9]: 82.3%
inhibition [10]: 29.6%
residual activity [11]: 100%
residual activity [12]: 100%
inhibition [13]: 17%
residual activity [14]: 100%
residual activity [15]: 100%
residual activity [16]: 79.4%
residual activity [17]: 100%
inhibition [18]: -0.606%
residual activity [19]: 100%
residual activity [20]: 96.5%
residual activity [21]: 100%
residual activity [22]: 100%
residual activity [23]: 100%
residual activity [24]: 80.5%
residual activity [25]: 99.1%
residual activity [26]: 100%
residual activity [27]: 55.6%
residual activity [28]: 100%
residual activity [29]: 100%
residual activity [30]: 100%
residual activity [31]: 83.7%
residual activity [32]: 92.6%
residual activity [33]: 75.8%
residual activity [34]: 82%
residual activity [35]: 76.4%
residual activity [36]: 100%
inhibition [37]: -5.07%
residual activity [38]: 100%
residual activity [39]: 100%
residual activity [40]: 83%
residual activity [41]: 90.5%
residual activity [42]: 100%
residual activity [43]: 80.7%
residual activity [44]: 100%
residual activity [45]: 100%
